Measured values reported in PubChem BioAssay (NCI).
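Values below derive from 48-hour exposures of cells grown in 96-well plates, with endpoints linearly interpolated between the two concentrations bracketing the appropriate inhibition level. TGI: concentration producing complete growth inhibition.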

How the values were obtained:
Assay in all cases: inhibition of tumour cell growth, NCI panel, 48 h
CCRF-CEM leukemia = system: CCRF-CEM leukemia
UACC-62 melanoma = system: UACC-62 melanoma
HCT-15 colon = system: HCT-15 colon
EKVX NSCLC = system: EKVX NSCLC
MCF7 breast = system: MCF7 breast
DU-145 prostate = system: DU-145 prostate
OVCAR-4 ovarian = system: OVCAR-4 ovarian
SF-268 CNS = system: SF-268 CNS
OVCAR-5 ovarian = system: OVCAR-5 ovarian
SNB-19 CNS = system: SNB-19 CNS
HOP-92 NSCLC = system: HOP-92 NSCLC
UO-31 renal = system: UO-31 renal
LOX IMVI melanoma = system: LOX IMVI melanoma
IGROV1 ovarian = system: IGROV1 ovarian
TK-10 renal = system: TK-10 renal
SF-539 CNS = system: SF-539 CNS
RPMI-8226 leukemia = system: RPMI-8226 leukemia
HCC-2998 colon = system: HCC-2998 colon
HOP-62 NSCLC = system: HOP-62 NSCLC
SN12C renal = system: SN12C renal
MDA-N = system: MDA-N
RXF 393 renal = system: RXF 393 renal
K-562 leukemia = system: K-562 leukemia
SNB-75 CNS = system: SNB-75 CNS
SF-295 CNS = system: SF-295 CNS
U251 CNS = system: U251 CNS
SK-MEL-28 melanoma = system: SK-MEL-28 melanoma
SK-OV-3 ovarian = system: SK-OV-3 ovarian
UACC-257 melanoma = system: UACC-257 melanoma
NCI/ADR-RES ovarian = system: NCI/ADR-RES ovarian
SW-620 colon = system: SW-620 colon
NCI-H522 lung = system: NCI-H522 lung
NCI-H23 lung = system: NCI-H23 lung
SK-MEL-2 melanoma = system: SK-MEL-2 melanoma
HT29 colon = system: HT29 colon
OVCAR-3 ovarian = system: OVCAR-3 ovarian
MDA-MB-231 breast = system: MDA-MB-231 breast
OVCAR-8 ovarian = system: OVCAR-8 ovarian
A549 NSCLC = system: A549 NSCLC
SR leukemia = system: SR leukemia
COLO 205 colon = system: COLO 205 colon
786-0 renal = system: 786-0 renal
MOLT-4 leukemia = system: MOLT-4 leukemia
HCT-116 colon = system: HCT-116 colon
M14 melanoma = system: M14 melanoma
MDA-MB-435 = system: MDA-MB-435
SK-MEL-5 melanoma = system: SK-MEL-5 melanoma
ACHN renal = system: ACHN renal
BT-549 breast = system: BT-549 breast
KM12 colon = system: KM12 colon
PC-3 prostate = system: PC-3 prostate
HS 578T breast = system: HS 578T breast
NCI-H460 lung = system: NCI-H460 lung
CAKI-1 renal = system: CAKI-1 renal
NCI-H226 lung = system: NCI-H226 lung
MALME-3M melanoma = system: MALME-3M melanoma
HL-60(TB) leukemia = system: HL-60(TB) leukemia
A498 renal = system: A498 renal

Measured: TGI

CCc1nnc(CC)n1-n1c(Cc2ccccc2)n[nH]c1=O
> 100 µM: CCRF-CEM leukemia | UACC-62 melanoma | HCT-15 colon | EKVX NSCLC | MCF7 breast | DU-145 prostate | OVCAR-4 ovarian | SF-268 CNS | OVCAR-5 ovarian | SNB-19 CNS | HOP-92 NSCLC | UO-31 renal | LOX IMVI melanoma | IGROV1 ovarian | TK-10 renal | SF-539 CNS | RPMI-8226 leukemia | HCC-2998 colon | HOP-62 NSCLC | SN12C renal | MDA-N | RXF 393 renal | K-562 leukemia | SNB-75 CNS | SF-295 CNS | U251 CNS | SK-MEL-28 melanoma | SK-OV-3 ovarian | UACC-257 melanoma | NCI/ADR-RES ovarian | SW-620 colon | NCI-H522 lung | NCI-H23 lung | SK-MEL-2 melanoma | HT29 colon | OVCAR-3 ovarian | MDA-MB-231 breast | OVCAR-8 ovarian | A549 NSCLC | SR leukemia | COLO 205 colon | 786-0 renal | MOLT-4 leukemia | HCT-116 colon | M14 melanoma | MDA-MB-435 | SK-MEL-5 melanoma | ACHN renal | BT-549 breast | KM12 colon | PC-3 prostate

Cc1cc(C)c(C2CC(O)C(CO)O2)cc1C (configuration not stated)
> 100 µM: CCRF-CEM leukemia | UACC-62 melanoma | HCT-15 colon | EKVX NSCLC | OVCAR-4 ovarian | SF-268 CNS | OVCAR-5 ovarian | HS 578T breast | SNB-19 CNS | UO-31 renal | LOX IMVI melanoma | IGROV1 ovarian | TK-10 renal | SF-539 CNS | RPMI-8226 leukemia | HCC-2998 colon | HOP-62 NSCLC | NCI-H460 lung | SN12C renal | MDA-N | K-562 leukemia | SNB-75 CNS | SF-295 CNS | U251 CNS | SK-MEL-28 melanoma | SK-OV-3 ovarian | UACC-257 melanoma | CAKI-1 renal | NCI/ADR-RES ovarian | SW-620 colon | NCI-H522 lung | NCI-H23 lung | NCI-H226 lung | SK-MEL-2 melanoma | HT29 colon | OVCAR-3 ovarian | MDA-MB-231 breast | OVCAR-8 ovarian | MALME-3M melanoma | A549 NSCLC | SR leukemia | 786-0 renal | MOLT-4 leukemia | HCT-116 colon | M14 melanoma | MDA-MB-435 | SK-MEL-5 melanoma | ACHN renal | BT-549 breast | KM12 colon | PC-3 prostate

c1ccc2c(c1)c(N1CCCCC1)cc1nc3c(cc(N4CCCCC4)c4ccccc43)nc12
> 100 µM: CCRF-CEM leukemia | UACC-62 melanoma | HCT-15 colon | EKVX NSCLC | MCF7 breast | DU-145 prostate | OVCAR-4 ovarian | OVCAR-5 ovarian | SNB-19 CNS | HOP-92 NSCLC | UO-31 renal | LOX IMVI melanoma | IGROV1 ovarian | SF-539 CNS | RPMI-8226 leukemia | HCC-2998 colon | HOP-62 NSCLC | NCI-H460 lung | SN12C renal | MDA-N | RXF 393 renal | K-562 leukemia | SNB-75 CNS | SF-295 CNS | U251 CNS | SK-MEL-28 melanoma | SK-OV-3 ovarian | UACC-257 melanoma | CAKI-1 renal | NCI/ADR-RES ovarian | SW-620 colon | NCI-H522 lung | NCI-H23 lung | NCI-H226 lung | SK-MEL-2 melanoma | HT29 colon | OVCAR-3 ovarian | MDA-MB-231 breast | OVCAR-8 ovarian | MALME-3M melanoma | HL-60(TB) leukemia | A549 NSCLC | SR leukemia | COLO 205 colon | 786-0 renal | MOLT-4 leukemia | HCT-116 colon | A498 renal | M14 melanoma | MDA-MB-435 | SK-MEL-5 melanoma | ACHN renal | BT-549 breast | KM12 colon | PC-3 prostate
